The record followed here is patent US10711006B2, “Selective Bruton's tyrosine kinase inhibitor and use thereof” (HANGZHOU HERTZ PHARMACEUTICAL CO., LTD., priority 2016, dated 2020).

One series concerns the target BTK Kinase (Homo sapiens (Human), UniProt Q06187). The series is described as follows: In-vitro Btk kinase inhibitory activity assay. It is filed as biochemical. As to the method: In-Vitro Btk Kinase Inhibitory Activity Assay for Compounds of the Present Invention:
10 μL of the 50× drug stock solution was added to a 96-well plate and then 90 μL of a 1× Kinase Buffer was added and the 96-well plate was shaken for 10 minutes on a shaker. From each well of the 96-well plate, 5 μL of the drug solution was taken and then transferred to a 384-well plate which was provided with 2 duplicate wells.
Preparation of a 2.5× Kinase Buffer: an enzyme was added to the 1× kinase base buffer.
Prepare a 2.5× oligopeptide solution: FAM-labeled oligopeptide and ATP were added to the 1× kinase base buffer.
10 μL of the 2.5× Kinase Buffer was added to the 384-well plate loaded with 5 μL of the drug solution and incubation was then carried out for 10 minutes at room temperature. 10 μL of the 2.5× oligopeptide solution was added to the 384-well plate and incubation was then carried out for 1 hour at 28° C. The reaction was stopped by adding 25 μL of a stop buffer. The readings were recorded and the inhibition rate of the compound on the enzyme was calculated. The IC50 of BTK kinase was calculated by fitting.

The target in the next series is hERG potassium channel (Homo sapiens (Human), UniProt Q12809). The series is described as follows: hERG potassium channel inhibitory activity, manual patch clamp in CHO cells. It is filed as cell-based. Conditions: CHO cells stably expressing hERG, whole-cell patch clamp. The protocol: The cells used in this experiment were CHO cell lines transfected with HergCdna and stably expressing Herg channels (supplied by Sophion Bioscience, Denmark). The cells were cultured in a medium containing the following components (all from Invitrogen): Ham's F12 medium, 10% (v/v) inactivated fetal bovine serum, 100 μg/ml hygromycin B, 100 μg/ml Geneticin. […] 24 to 48 hours before an electrophysiological experiment, CHO Herg cells were transferred to circular slides placed in the culture dishes and grow with the same culture liquid under the same culture conditions as above. The density of CHO Herg cells on each circular slide was required to reach such a value that most cells were independent and stand alone.
2. Treatment and Dilution of a Compound
Before the test, the compound was first diluted with DMSO at gradient to make stock solutions with concentrations of 10, 3, 1, 0.3 and 0.1 Mm and the stock solutions were then diluted with extracellular fluid to a final Mm test concentration. Except that the DMSO concentration in the 30 Mm compound test solution was 0.3%, the final concentration of DMSO in each of the compound solutions with other concentrations was 0.1%. The test concentration of a positive control Cisapridewas 0.1 Mm. All compound solutions were conventionally sonicated and shaken for 5 to 10 minutes to ensure complete dissolution of the compound.
3. Electrophysiological Recording System and Data Analysis
This experiment uses a manual patch clamp system (HEKA EPC-10 signal amplifier and digital conversion system, purchased from HEKA Electronics, Germany) for the recording of whole cell currents. The circular slides with CHO Herg cells growing on the surfaces were placed in an electrophysiological recording slot under an inverted microscope. The extracellular fluid was used for continuous perfusion in the recording slot (approximately lml per minute). The experimental procedure uses a conventional whole-cell patch clamp current recording technique. Unless otherwise stated, the experiment was carried out at regular room temperature ([…]). The cells were clamped at a voltage of −80 Mv. The cell clamp voltage was depolarized to +20 Mv to activate the Herg potassium channel, and 5 seconds later, it was clamped to −50 Mv to eliminate inactivation and generate tail current. The peak of the tail current was used as the value of the Herg current. After the hERG potassium current recorded in the above step was stabilized under the continuous extracellular fluid perfusion in the recording slot, the drug to be tested can be superimposed to the perfusion until the inhibitory effect of the drug on the hERG current reaches a steady state. Generally, the criterion for determine whether or not the stable state was reached was that the recent three consecutive current recording lines were coincident. After the steady state was reached, extracellular fluid perfusion was carried out for flushing until the hERG current returns to the magnitude before the drug was added. One cell may be used for testing one or more drugs, or multiple concentrations of the same drug, and flushing with extracellular fluid was carried out between tests of different drugs. Cisapride (purchased from Sigma) was used in the experiment as a positive control to ensure that the cells used were of normal quality. The test data was analyzed by data analysis software provided by HEKA Patchmaster, Microsoft Excel and Graphpad Prism.

Series [1] concerns human lung cancer cell (A549). The series is described as follows: In-vitro tumor cell proliferation inhibition (CCK-8), A549. Conditions: A549, 72 h, read-out: Tumor cell proliferation inhibitory activity (IC50, μM) A549.
Method: (§1) The in-vitro antitumor activity assay was carried out on the synthesized compound by using different solid tumors and leukemia cell lines:
(§2) Cell lines: human lung cancer cell (A549), human mantle cell lymphoma (MINO), diffuse giant B-cell lymphoma (OCI-LY10), and human diffuse large B lymphoma (TMD-8).
(§3) Preparation method of the drug: the drug was dissolved in DMSO to make a 10 mM stock solution, and then the stock solution was diluted in a certain ratio to obtain 5 different concentrations (test concentration 100×). In-vitro culture of tumor cells:
(§4) The tumor cells A549, MINO, OCI-LY10, and TMD-8 were seeded in a 96-well plate at 4000 cells/200 μL/well and then incubated overnight at 37° C. in a 5% CO2 cell culture incubator. 2 μL of the compound was added to each well to final concentrations of 50 μM, 10 μM, 2 μM, 0.4 μM, and 0.08 μM and then incubated for 72 hours at 37° C. in a 5% CO2 cell incubator, with DMSO (2%) as a control group. […] Wells loaded with the corresponding amount of cell culture fluid the and CCK-8 solution but no cells were considered as blank controls. The absorbance (OD value) was measured at 450 nm using a microplate reader, and the obtained data was used to calculate IC50.
Series [2] deals with human mantle cell lymphoma (MINO). The series is described as follows: In-vitro tumor cell proliferation inhibition (CCK-8), MINO. Conditions: 72 h, read-out: Tumor cell proliferation inhibitory activity (IC50, μM) MINO.
Series [3] relates to human diffuse large B lymphoma (TMD-8). The series is described as follows: In-vitro tumor cell proliferation inhibition (CCK-8), TMD-8. As to conditions: TMD8, 72 h, read-out: Tumor cell proliferation inhibitory activity (IC50, nM) TMD-8.
Method: as §1, §2, §3, §4
Series [4] concerns diffuse giant B-cell lymphoma (OCI-LY10). Nature of the series: In-vitro tumor cell proliferation inhibition (CCK-8), OCI-LY10. As to conditions: Homo sapiens, OCI-Ly10, 72 h, read-out: Tumor cell proliferation inhibitory activity (IC50, nM) OCI-LY10.
Method: as §1, §2, §3, §4
Series [5] in a line: Oral pharmacokinetic experiment in SD rats. It is filed as in vivo. As to the method: SD rats were used as experimental animals and were subjected to intragastric administration in a dose of 10 mg/kg and tail-vein intravenous injection in a dose of 2 mg/kg. The tail-vein blood sampling time points in the intragastric administration were 0.17, 0.33, 0.5, 1, 1.5, 2, 4, 6, 8, 12, and 24 hours; the blood sampling time points in the intravenous administration were 0.05, 0.1, 0.17, 0.5, 1, 2, 4, 6, 8, 12, and 24 hours. 0.3 ml of whole blood was taken, and 0.1 ml of plasma after centrifugation was taken and analyzed by LC-MS.

Where [6] appears, read: oral (intragastric) 10 mg/kg, mean n = 3.

Sequence of hERG potassium channel (Q12809 whole entry): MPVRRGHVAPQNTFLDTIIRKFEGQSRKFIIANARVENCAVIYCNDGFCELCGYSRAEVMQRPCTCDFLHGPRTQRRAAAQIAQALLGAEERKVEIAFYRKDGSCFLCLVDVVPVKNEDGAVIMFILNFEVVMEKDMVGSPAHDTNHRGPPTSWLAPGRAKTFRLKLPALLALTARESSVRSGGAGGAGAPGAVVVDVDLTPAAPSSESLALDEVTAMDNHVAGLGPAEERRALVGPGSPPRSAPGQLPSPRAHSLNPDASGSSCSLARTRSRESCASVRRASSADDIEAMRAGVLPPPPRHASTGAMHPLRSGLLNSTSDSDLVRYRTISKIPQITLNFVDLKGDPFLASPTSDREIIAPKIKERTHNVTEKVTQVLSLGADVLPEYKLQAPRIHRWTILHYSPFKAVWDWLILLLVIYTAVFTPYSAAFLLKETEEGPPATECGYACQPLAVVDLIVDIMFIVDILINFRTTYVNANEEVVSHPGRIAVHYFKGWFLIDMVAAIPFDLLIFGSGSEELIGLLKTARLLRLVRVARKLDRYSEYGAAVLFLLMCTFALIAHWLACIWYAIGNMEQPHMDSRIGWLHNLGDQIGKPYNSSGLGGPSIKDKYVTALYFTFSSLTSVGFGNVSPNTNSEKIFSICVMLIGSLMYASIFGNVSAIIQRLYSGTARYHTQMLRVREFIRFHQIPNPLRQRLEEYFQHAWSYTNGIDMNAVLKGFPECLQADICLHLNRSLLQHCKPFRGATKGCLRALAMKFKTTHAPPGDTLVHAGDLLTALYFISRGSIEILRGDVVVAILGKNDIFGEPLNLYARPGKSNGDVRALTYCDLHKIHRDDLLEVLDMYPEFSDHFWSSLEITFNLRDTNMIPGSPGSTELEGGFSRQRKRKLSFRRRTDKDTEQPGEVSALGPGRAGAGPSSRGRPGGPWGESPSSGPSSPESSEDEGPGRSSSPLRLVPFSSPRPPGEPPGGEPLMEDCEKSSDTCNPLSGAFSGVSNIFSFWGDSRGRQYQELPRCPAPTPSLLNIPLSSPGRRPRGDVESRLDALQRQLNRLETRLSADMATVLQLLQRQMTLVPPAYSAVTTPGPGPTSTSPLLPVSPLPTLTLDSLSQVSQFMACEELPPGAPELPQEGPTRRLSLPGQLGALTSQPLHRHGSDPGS
Sequence of BTK Kinase (Q06187 whole entry): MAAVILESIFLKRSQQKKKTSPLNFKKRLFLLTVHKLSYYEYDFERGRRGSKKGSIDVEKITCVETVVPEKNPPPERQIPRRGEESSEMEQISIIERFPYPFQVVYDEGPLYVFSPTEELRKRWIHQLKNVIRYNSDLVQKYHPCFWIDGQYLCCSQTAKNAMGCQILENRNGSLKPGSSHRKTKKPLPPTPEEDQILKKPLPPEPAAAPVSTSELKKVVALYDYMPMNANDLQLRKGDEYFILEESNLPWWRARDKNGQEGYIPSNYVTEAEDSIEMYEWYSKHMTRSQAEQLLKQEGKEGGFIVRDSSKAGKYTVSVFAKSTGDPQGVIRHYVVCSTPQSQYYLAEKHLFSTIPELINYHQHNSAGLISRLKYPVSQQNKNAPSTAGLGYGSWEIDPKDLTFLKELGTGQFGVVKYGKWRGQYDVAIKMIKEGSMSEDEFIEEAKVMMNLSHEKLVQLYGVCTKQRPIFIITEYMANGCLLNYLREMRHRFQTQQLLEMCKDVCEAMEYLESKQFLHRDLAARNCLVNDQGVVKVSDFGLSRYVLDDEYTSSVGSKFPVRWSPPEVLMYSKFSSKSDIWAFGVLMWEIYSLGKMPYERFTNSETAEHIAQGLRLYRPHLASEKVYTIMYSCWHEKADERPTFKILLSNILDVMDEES

`C=CC(=O)N1CCC[C@@H](n2nc(-c3cnc(Oc4ccccc4)c(F)c3)c3c(N)ncnc32)C1` [Compound 16b, (R)-1-(3-(4-amino-3-(5-fluoro-6-phenoxypyridin-3-yl)-1H-pyrazolo[3,4-d]pyrimidin-1-yl)piperidin-1-yl)prop-2-en-1-one] gave an IC50 on BTK Kinase of 8.6 nM.

On hERG potassium channel, `Nc1ncnc2c1c(-c1ccc(Oc3ccccc3)nc1)nn2[C@@H]1CCCN(C(=O)C#CCCO)C1` [Compound 21c, (R)-1-(3-(4-amino-3-(6-phenoxypyridin-3-yl)-1H-pyrazolo[3,4-d]pyrimidin-1-yl)piperidin-1-yl)-5-hydroxypent-2-yn-1-one] returned an IC50 of 25200 nM.

In the case of `C=CC(=O)N1CCC[C@@H](n2nc(-c3ccc(Oc4ccc(C(F)(F)F)cc4)nc3)c3c(N)ncnc32)C1` [Compound 15k, (R)-1-(3-(4-amino-3-(6-(4-trifluoromethylphenoxypyridine)-3-yl)-1H-pyrazolo[3,4-d]pyrimidin-1-yl)piperidin-1-yl)prop-2-en-1-one], the IC50 against BTK Kinase is 18.2 nM.

In the case of `C=CC(=O)N1CCC[C@@H](n2nc(-c3ccc(Oc4ccc(Cl)cc4)nc3)c3c(N)ncnc32)C1` [Compound 15e, (R)-1-(3-(4-amino-3-(6-(4-chlorophenoxypyridine)-3-yl)-1H-pyrazolo[3,4-d]pyrimidin-1-yl)piperidin-1-yl)prop-2-en-1-one], on BTK Kinase, the IC50 stood at 10.5 nM.

Regarding `C=CC(=O)N1CCC[C@@H](n2nc(-c3ccc(Oc4ccccc4F)nc3)c3c(N)ncnc32)C1` [Compound 15d, (R)-1-(3-(4-amino-3-(6-(2-fluorophenoxypyridine)-3-yl)-1H-pyrazolo[3,4-d]pyrimidin-1-yl)piperidin-1-yl)prop-2-en-1-one], the IC50 was 5.12 µM in series [1]; 9.15 µM in series [2]; 7.5 nM against BTK Kinase; 3.83 nM in series [3]; 5.12 nM in series [4].

In turn, `C=CC(=O)N1CCC[C@@H](n2nc(-c3ccc(Oc4c(F)cccc4F)nc3)c3c(N)ncnc32)C1` [Compound 15g, (R)-1-(3-(4-amino-3-(6-(2,6-difluorophenoxypyridine)-3-yl)-1H-pyrazolo[3,4-d]pyrimidin-1-yl)piperidin-1-yl)prop-2-en-1-one] showed an IC50 against BTK Kinase of 7.8 nM.

For the compound `C=CC(=O)N1CCC[C@@H](n2nc(-c3cnc(Oc4ccccc4)cc3F)c3c(N)ncnc32)C1` [Compound 16a, (R)-1-(3-(4-amino-3-(4-fluoro-6-phenoxypyridin-3-yl)-1H-pyrazolo[3,4-d]pyrimidin-1-yl)piperidin-1-yl)prop-2-en-1-one], the figures for the IC50 at BTK Kinase and against hERG potassium channel were 8.9 nM and 6900 nM, respectively.

For `C=CC(=O)N1CC[C@@H](n2nc(-c3ccc(Oc4ccccc4F)nc3)c3c(N)ncnc32)C1` [Compound 23b, (R)-1-(3-(4-amino-3-(6-(2-fluorophenoxy)pyridin-3-yl)-1H-pyrazolo[3,4-d]pyrimidin-1-yl)pyrrolidin-1-yl)prop-2-en-1-one], the IC50 against BTK Kinase was found to be 9.6 nM.

Turning to `C=CC(=O)N1CCC[C@@H](n2nc(-c3ccc(Oc4ccc(OC)cc4)nc3)c3c(N)ncnc32)C1` [Compound 15j], the IC50 was 32.5 nM on BTK Kinase and 17500 nM at hERG potassium channel.

Compound `C=CC(=O)N1CCC[C@@H](n2nc(-c3ccc(Oc4cccc(F)c4F)nc3)c3c(N)ncnc32)C1` [Compound 15h, (R)-1-(3-(4-amino-3-(6-(2,3-difluorophenoxypyridine)-3-yl)-1H-pyrazolo[3,4-d]pyrimidin-1-yl)piperidin-1-yl)prop-2-en-1-one] registered an IC50 against BTK Kinase of 3.2 nM.

As to `C=CC(=O)N1CC[C@H](n2nc(-c3ccc(Oc4ccccc4)nc3F)c3c(N)ncnc32)C1` [Compound 24b, (S)-1-(3-(4-amino-3-(2-fluoro-6-phenoxypyridin-3-yl)-1H-pyrazolo[3,4-d]pyrimidin-1-yl)pyrrolidin-1-yl)prop-2-en-1-one], the “oral bioavailability relative to ibrutinib” value in series [5] (oral 10 mg/kg) was determined as 3.69 times.

Consider `C=CC(=O)N1CCC[C@@H](n2nc(-c3ccc(Oc4ccccc4)cc3)c3c(N)ncnc32)C1` [Ibrutinib, reference compound], for which, in series [5] (setting [6]), the AUC0-C(ng/h/mL) was 550 ng·h/mL and the AUC0-t (ng/h/mL) is 544 ng·h/mL. Besides, the bioavailability in series [5] (rat, plasma, oral 10 mg/kg vs intravenous 2 mg/kg, mean n = 3) came to 12.5%. In series [5] (rat, plasma, oral (intragastric) 10 mg/kg, mean n = 3), this compound had a Cmax of 254 ng/mL.

On to `C=CC(=O)N1CCC[C@@H](n2nc(-c3ccc(Oc4ccc(F)c(F)c4)nc3)c3c(N)ncnc32)C1` [Compound 15f, (R)-1-(3-(4-amino-3-(6-(3,4-difluorophenoxypyridine)-3-yl)-1H-pyrazolo[3,4-d]pyrimidin-1-yl)piperidin-1-yl)prop-2-en-1-one], for which the IC50 against BTK Kinase was found to be 25.3 nM.

As to `C=CC(=O)N1CC[C@@H](n2nc(-c3ccc(Oc4c(F)cccc4F)nc3)c3c(N)ncnc32)C1` [Compound 23c, (R)-1-(3-(4-amino-3-(6-(2,6-difluorophenoxy)pyridin-3-yl)-1H-pyrazolo[3,4-d]pyrimidin-1-yl)pyrrolidin-1-yl)prop-2-en-1-one], the IC50 at BTK Kinase stood at 9.7 nM.

`C=CC(=O)N1CC[C@@H](n2nc(-c3ccc(Oc4cccc(F)c4F)nc3)c3c(N)ncnc32)C1` [Compound 23d, (R)-1-(3-(4-amino-3-(6-(2,3-difluorophenoxy)pyridin-3-yl)-1H-pyrazolo[3,4-d]pyrimidin-1-yl)pyrrolidin-1-yl)prop-2-en-1-one] had an IC50 against BTK Kinase of 7.4 nM.

Compound `C=CC(=O)N1CCC[C@@H](n2nc(-c3ccc(Oc4ccccc4)nc3C)c3c(N)ncnc32)C1` [Compound 16d, (R)-1-(3-(4-amino-3-(2-methyl-6-phenoxypyridin-3-yl)-1H-pyrazolo[3,4-d]pyrimidin-1-yl)piperidin-1-yl)prop-2-en-1-one] came in with an IC50 at BTK Kinase of 7.2 nM.

Compound `C=CC(=O)N1CCC[C@@H](n2nc(-c3cnc(Oc4ccccc4)cc3C)c3c(N)ncnc32)C1` [Compound 16c, (R)-1-(3-(4-amino-3-(4-methyl-6-phenoxypyridin-3-yl)-1H-pyrazolo[3,4-d]pyrimidin-1-yl)piperidin-1-yl)prop-2-en-1-one] returned an IC50 against BTK Kinase of 6.6 nM.
